# Several values for one entry are separate records, joined by “and”; a condition that tells them apart may be missing. Identical values can stand only once.
# Key:
# gastric mucosa of rats = experiment: gastric ulcerogenic effect (Meshali's method, ulcer index by Robert's method); assay type: in vivo, rat; parameters: key to Ulcer index: ulcer index = %incidence/10 + avg no. of ulcers + avg severity (0–4); conditions: for % ulceration in the population of test animals: oral 10 mg/kg; for Average No. of ulcer / % Incidence/10 / % Ulcerogenicity relative to indomethacin / Average severity / Ulcer index: oral 10 mg/kg on three days; for % Incidence/10: 5 animals per group; for % Ulcerogenicity relative to indomethacin: indomethacin = 100, 10 mg/kg; for Average severity: score 0 to 4; for Ulcer index: sum of the 3 figures
# Description: The ulcer index was calculated according to Robert’s method.
# Adult male albino rats weighing between 100 and 120 g were used. Animals were divided into groups of five animals each. Rats were fasted 20 h before drug administration. Water was given ad libitum. The control group received the vehicle (1% gum acacia) orally. Other groups received indomethacin or test compounds orally in a dose of 10 mg/kg body weight suspended in 1% gum acacia. Rats were fasted for 2 h, allowed to feed for 2 h, then fasted for another 20 h. Rats were given another two doses on the second and third days. On the fourth day, rats were sacrificed by diethyl ether; the stomach of each rat was removed, opened along the greater curvature, and rinsed with cold 0.9% saline. The stomach was stretched, by pins, on a corkboard and inspected with a 3x magnifying lens for any evidence of mucosal damage. The ulcer index was calculated according to Robert’s method. The number of mucosal damage (red spots) was counted and their severity (ulcerogenic severity) was graded from 0 to 4 according to the following score assignment:
# The following figures were calculated: • –– % Incidence/10 = [number of rats showing ulcer of any grade divided by total number of rats in the group × 100]/10. • –– Average number of ulcers: number of ulcers in the group/total number of rats in the group. • –– Average severity: Σ [each ulcer multiplied by its score of severity]/number of ulcers in the group. • Ulcer index = the sum of the 3 figures. • Results are tabulated in Table 2.
# [1] = system: carrageenan-induced rat paw edema; experiment: carrageenan-induced rat paw edema test; assay type: in vivo; parameters: Mean increase in edema weight ± SEM: unit not given here; conditions: rats, 10 mg/kg intraperitoneally, 4 h after carrageenan; for inhibition in vivo at 10 mg/kg / change in vivo at 10 mg/kg: Rattus norvegicus, ip; for inhibition in vivo at 10 mg/kg: 4 h, read-out: %Inhibition of Paw edema from control group (edema reduction); for change in vivo at 10 mg/kg / Mean increase in edema weight ± SEM: N = 6; for change in vivo at 10 mg/kg: read-out: Mean % increase in edema weight ± SEM; for % Activity relative to indomethacine: indomethacin = 100
# Description: The in vivo anti-inflammatory effects of the newly synthesized pyrazolopyrimidine derivatives were assessed by utilizing the functional model of carrageenan-induced rat paw edema using indomethacin as the reference drug. Mean changes and the percent increase in paw edema weight of animals pretreated with the tested compounds after 4 h from the induction of inflammation were measured, together with the percent inhibition of induced rat paw edema by the tested compounds. The anti-inflammatory activity (relative potency) of the tested compounds relative to that of indomethacin was also calculated (Table 1) (Fig. 2).
# The in vivo carrageenan-induced rat paw edema model of inflammation was used to evaluate the anti-inflammatory properties of the newly synthesized compounds according to the previously reported Winter et al. method.
# Adult male albino rats weighing 100–120 g (obtained from the animal house of the department of Physiology, Faculty of Medicine, Alexandria University) were used throughout the work. Animals were randomly divided into groups of six rats each. They were kept in an animal house under standard conditions of light and temperature with free access to food and water ad libitum and allowed to be accustomed to their environment for two days before testing.
# Indomethacin, used as a reference standard (Khahira for Pharmaceutical and Chemical Industry, Cairo, Egypt), and the test compounds were dissolved in DMSO and were injected intraperitoneally at a dose level of 10 mg/kg body weight. Control animals, on the other hand, were intraperitoneally injected with appropriate volume of DMSO only. After one hour of the above treatment, an inflammatory edema in the right hind paw of all animals was induced by subcutaneous injection of 0.05 ml of freshly prepared solution of 1% carrageenan (λ-Carrageenan Sigma–Aldrich Corp. St. Louis, MO, USA) in sterile normal saline (0.9%), into the subplantar tissue of the paw. An equal volume of saline was injected to the left hind paw and served as internal control for the degree of inflammation in the right hind paw.
# Four hours after carrageenan injection, animals were decapitated and both the right and left hind paws were excised at a standard point and weighed. The difference in weight from edema between right and left paws was taken as a measure of the degree of inflammation for each animal. The mean increase in weight of the carrageenan-injected paw over the other paw in each group was measured and the percent increase of edema was calculated. The anti-inflammatory efficacy of the tested compounds was assessed by comparing the change in paw weight in the treated animals with that in control animals (treated with DMSO only) and expressed as a percent inhibition of the edema (percent protection against inflammation), calculated according to the following equation: % Inhibition of edema=(1-Wt/Wc)×100 where Wt is the mean increase in paw weight in rats treated with the test compounds and Wc is the mean increase in paw weight in the control group. The anti-inflammatory activity of the test compounds relative to that of indomethacin was also determined (Table 2).
# In the anti-inflammatory study, data obtained were expressed as the mean ± standard error (SEM). Statistical significance was determined by comparing the values of the test compounds and the standard with those obtained from the control group of animals using One-way ANOVA with Dunnett’s post-test using the GraphPad Prism version 3.00 for Windows (GraphPad Software, San Diego California USA, www.graphpad.com). The difference in results was considered significant if P < 0.001.
# cyclooxygenase-2 = molecular target: cyclooxygenase-2; parameters: method as in PMID 15044055; conditions: intact cell assays; cited from earlier work
# cyclooxygenase-1 = molecular target: cyclooxygenase-1; parameters: method as in PMID 15044055; conditions: intact cell assays; cited from earlier work
SMILES,% ulceration in the population of test animals (gastric mucosa of rats),Average No. of ulcer (gastric mucosa of rats),% Incidence/10 (gastric mucosa of rats),% Ulcerogenicity relative to indomethacin (gastric mucosa of rats),Average severity (gastric mucosa of rats),Ulcer index (gastric mucosa of rats),inhibition in vivo at 10 mg/kg [1] [%],change in vivo at 10 mg/kg [1] [%],Mean increase in edema weight ± SEM [1],% Activity relative to indomethacine [1] [%],melting point [°C],IC50 (cyclooxygenase-2) [nM],IC50 (cyclooxygenase-1) [nM]
"Cc1nc2c(cnn2-c2ccccc2)c(=O)n1N=C1SCC(=O)N1c1ccc(Cl)cc1 [Compound 10b, 5-{[3-(4-Chlorophenyl)-4-oxo-1,3-thiazolidin-2-ylidene]amino}-6-methyl-1-phenyl-1,5-dihydro-4H-pyrazolo[3,4-d]pyrimidin-4-one]",40–60%,0.8,6,46.63%,1.25,8.05,58.6,8.31 ± 0.43,0.65 ± 0.022,85.99,264 to 267,–,–
"Cc1nc2c(cnn2-c2ccccc2)c(=O)n1N=c1scc(-c2ccccc2)n1-c1ccccc1 [Compound 11a, 5-[(3,4-Diphenyl-1,3-thiazol-2(3H)-ylidene)amino]-6-methyl-1-phenyl-1,5-dihydro-4H-pyrazolo[3,4-d]pyrimidin-4-one]",40–60%,1.6,6,52.02%,1.38,8.98,53.5,10.5 ± 0.468,0.73 ± 0.021,78.50,258 to 260,–,–
"Cc1nc2c(cnn2-c2ccccc2)c(=O)n1N=c1scc(-c2ccc(Br)cc2)n1-c1ccccc1 [Compound 11b, 5-{[4-(4-Bromophenyl)-3-phenyl-1,3-thiazol-2(3H)-ylidene]amino}-6-methyl-1-phenyl-1,5-dihydro-4H-pyrazolo[3,4-d]pyrimidin-4-one]",80%,1.2,8,–,1.33,10.53,57.3,8.42 ± 0.482,0.67 ± 0.049,84.11,248 to 252,–,–
"Cc1nc2c(cnn2-c2ccccc2)c(=O)n1N=c1scc(-c2ccc(Cl)cc2)n1-c1ccccc1 [Compound 11c, 5-{[4-(4-Chlorophenyl)-3-phenyl-1,3-thiazol-2(3H)-ylidene]amino}-6-methyl-1-phenyl-1,5-dihydro-4H-pyrazolo[3,4-d]pyrimidin-4-one]",40–60%,1.6,6,53.47%,1.63,9.23,54.1,10.8 ± 0.457,0.72 ± 0.031,79.44,258 to 259,–,–
"Cc1nc2c(cnn2-c2ccccc2)c(=O)n1N=c1scc(-c2ccccc2)n1-c1ccc(Cl)cc1 [Compound 11d, 5-{[3-(4-Chlorophenyl)-4-phenyl-1,3-thiazol-2(3H)-ylidene]amino}-6-methyl-1-phenyl-1,5-dihydro-4H-pyrazolo[3,4-d]pyrimidin-4-one]",80%,1.0,8,59.09%,1.20,10.20,56.7,8.73 ± 0.868,0.68 ± 0.065,83.18,267 to 269,–,–
"Cc1nc2c(cnn2-c2ccccc2)c(=O)n1N=c1scc(-c2ccc(Br)cc2)n1-c1ccc(Cl)cc1 [Compound 11e, 5-{[4-(4-Bromophenyl)-3-(4-chlorophenyl)-1,3-thiazol-2(3H)-ylidene]amino}-6-methyl-1-phenyl-1,5-dihydro-4H-pyrazolo[3,4-d]pyrimidin-4-one]",20%,0.8,2,26% and 26.36%,1.75,4.55,66.9,8.74 ± 0.929,0.52 ± 0.031,98.14,261 to 263,–,–
"Cc1nc2c(cnn2-c2ccccc2)c(=O)n1N=c1scc(-c2ccc(Cl)cc2)n1-c1ccc(Cl)cc1 [Compound 11f, 5-{[3,4-Bis(4-chlorophenyl)-1,3-thiazol-2(3H)-ylidene]amino}-6-methyl-1-phenyl-1,5-dihydro-4H-pyrazolo[3,4-d]pyrimidin-4-one]",40–60%,1.6,4,41.13%,1.5,7.10,65,9.29 ± 0.961,0.55 ± 0.043,95.33,272 to 275,–,–
"O=c1c2cnn(-c3ccccc3)c2nc2cc3c(nn12)CCCC3 [Compound 17, 1-Phenyl-7,8,9,10-tetrahydropyrazolo[3′,4′:4,5]pyrimido[1,2-b]cinnolin-4(1H)-one]",–,–,–,–,–,–,29.9,15.8 ± 0.756,1.10 ± 0.052,43.93,142 to 145,–,–
CN(C)c1nc(NCc2ccccc2)c2cnn(C(C)(C)C)c2n1 [II],–,–,–,–,–,–,–,–,–,–,–,0.9,59.6

# Reference: paper PMC3700072, “Synthesis, Anti-Inflammatory, and Ulcerogenicity Studies of Novel Substituted and Fused Pyrazolo[3,4-d]pyrimidin-4-ones” (Scientia Pharmaceutica, 2013)
